Measurements published in US20260216348A1, “IRAK DEGRADATION AGENT AND USE THEREOF” (Increland, priority 2023, published 2026).

Assays:
[1] = tested on: LPS/IL-1β-induced IL-6 secretion in human peripheral blood mononuclear cells (PBMCs); assay: Inhibition of LPS/IL-1β-induced IL-6 secretion in human PBMCs (IL-6 ELISA); assay type: cell-based; settings: PBMC, LPS 10 ng/mL + IL-1β 20 ng/mL, 24 h pre-incubation, 20 h stimulation
Procedure: This experiment was carried out in RPMI 1640 medium containing 10% FBS and 1% penicillin/streptomycin, with each of the compounds at an initial test concentration of 1 μM.
The compound was dissolved in DMSO to prepare a stock solution, which was serially diluted into some working solutions with a 5-fold concentration gradient using the culture medium and then added to a 96-well plate at 10 μL per well. PBMCs (Batch No.: P122101102C; Milecell Biotechnology Inc.) were counted and diluted to a cell concentration of about 1.3×10^6 cells/mL, and then added to the aforementioned compound-containing 96-well plate at 150 μL per well. The system was mixed well and incubated in a 5% CO2 incubator at 37° C. for 24 h. Then 5 μL of LPS (final concentration: 10 ng/mL) and 5 μL of IL-1β (final concentration: 20 ng/mL) were added to each well, respectively, and the culture was continued for 20 h in a 5% CO2 incubator at 37° C. After incubation, the 96-well plate was centrifuged at 2000 rpm for 4 min. The supernatant was collected and diluted 200-fold, then detected using an IL-6 ELISA kit. The OD450 values were read, and converted to IL-6 concentrations based on a standard curve. The dose-response curves were fitted using GraphPad 8.0 to calculate the IC50 values.

IRAK4 = molecular target: T1, IRAK4 (Homo sapiens, UniProt Q9NWZ3); assay: IRAK4 protein degradation in THP1 cells (Western blot); assay type: cell-based; settings: THP-1 cells, 24 h
T1 construct: Effect of the Compounds on IRAK4 Protein Degradation in THP1 Cells; endogenous in cells; host or cells: THP-1 cells
T1 sequence (Q9NWZ3 1-460): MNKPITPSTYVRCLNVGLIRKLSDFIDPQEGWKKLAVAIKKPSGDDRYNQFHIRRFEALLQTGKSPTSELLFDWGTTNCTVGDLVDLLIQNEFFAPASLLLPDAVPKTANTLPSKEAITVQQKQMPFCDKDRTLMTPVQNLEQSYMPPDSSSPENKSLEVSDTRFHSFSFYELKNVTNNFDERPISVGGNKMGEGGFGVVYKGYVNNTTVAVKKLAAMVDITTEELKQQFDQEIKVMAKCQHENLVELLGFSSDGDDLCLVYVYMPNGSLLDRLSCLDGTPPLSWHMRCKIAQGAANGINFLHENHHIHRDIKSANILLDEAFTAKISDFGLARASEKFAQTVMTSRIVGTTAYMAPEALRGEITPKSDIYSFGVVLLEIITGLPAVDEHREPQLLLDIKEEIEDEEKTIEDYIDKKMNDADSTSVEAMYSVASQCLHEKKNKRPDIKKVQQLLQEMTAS
Procedure: THP-1 cells were seeded into a 96-well cell culture plate, with 2×10^5 cells and 90 μL of culture medium per well. The cell culture plate was cultured in an incubator with 5% CO2 at 37° C. overnight. The compound was dissolved in DMSO to prepare a stock solution, which was serially diluted into a series of working solutions with a 5-fold concentration gradient using the culture medium and then added to the aforementioned 96-well plate at 10 μL per well. The cell culture plate was further incubated for 24 h in a 5% CO2 incubator at 37° C. After incubation, the 96-well plate was centrifuged and the supernatant was discarded, followed by adding 40 μL of cell lysis buffer containing […]/phosphatase inhibitors to each well for sufficient lysis on an ice bath. Protein quantification was performed using the BCA protein quantification kit, followed by the preparation of Western blot samples. […] After electrophoresis, protein transfer was performed using a PVDF membrane under ice bath conditions for 1 h. After the transfer was completed, the PVDF membrane was blocked with gentle shaking in 5% skim milk at room temperature for 1 h. After blocking, the PVDF membrane was incubated with the primary antibody overnight with gentle shaking at 4° C. The PVDF membrane was washed 3 times with TBST, then the secondary antibody was added and incubated for 1 h with gentle shaking at room temperature, followed by washing of the PVDF membrane with TBST for 3 times. After the washes were completed, the chemiluminescent substrate was added; the PVDF membrane was scanned using a Clinx imager, semi-quantitative analysis was performed with ImageJ software, and the DC50 was calculated using GraphPad Prism 8.0.

SMILES	IC50 [1]	DC50 (IRAK4)
CN(C)c1cc2nn(C3CCN(CC4CCN(c5nc6cc(N7CCC(=O)NC7=O)ccc6s5)CC4)CC3)cc2cc1NC(=O)c1cnn2cccnc12 [TM-128]	36.6 nM	–
CN(C)c1cc2nn([C@H]3CC[C@H](CN4CCN(c5nc6cc(N7CCC(=O)NC7=O)ccc6o5)CC4)CC3)cc2cc1NC(=O)c1cnn2cccnc12 [TM-145]	2.62 nM	–
O=C1CCC(c2ccc3nn(C4CCN(C[C@H]5CC[C@H](n6cc7cc(NC(=O)c8cnn9cccnc89)c(N8CCOCC8)cc7n6)CC5)CC4)cc3c2)C(=O)N1 (some centres unmarked) [TM-2]	5.07 nM	–
C[C@@H]1CN(c2cc3nn([C@H]4CC[C@H](CN5CCN(c6nc7cc(N8CCC(=O)NC8=O)ccc7s6)CC5)CC4)cc3cc2NC(=O)c2cnn3cccnc23)CCO1 [TM-56]	8.81 nM	–
C[C@@H]1CN(C[C@H]2CC[C@H](n3cc4cc(NC(=O)c5cnn6cccnc56)c(N(C)C)cc4n3)CC2)CC[C@H]1n1cc2ccc(N3CCC(=O)NC3=O)cc2n1 [TM-26]	0.54 nM	–
C[C@@H]1CN(c2cc3nn([C@H]4CC[C@H](CN5CCN(c6nc7ccc(N8CCC(=O)NC8=O)cc7s6)CC5)CC4)cc3cc2NC(=O)c2cnn3cccnc23)CCO1 [TM-57]	10.2 nM	–
CN(C)c1cc2nn([C@H]3CC[C@H](CN4CCCN(c5nc6ccc(N7CCC(=O)NC7=O)cc6s5)CC4)CC3)cc2cc1NC(=O)c1cnn2cccnc12 [TM-150]	6.94 nM	–
CN(C)c1cc2nn([C@H]3CC[C@H](CN4C5CCC4CN(c4nc6ccc(N7CCC(=O)NC7=O)cc6o4)C5)CC3)cc2cc1NC(=O)c1cnn2cccnc12 [TM-146]	44.1 nM	–
C[C@@H]1CN(c2cc3nn([C@H]4CC[C@H](CN5CCC(n6cc7cc(C8CCC(=O)NC8=O)ccc7n6)CC5)CC4)cc3cc2NC(=O)c2cnn3cccnc23)CCO1 (some centres unmarked) [TM-47]	3.06 nM	–
CN(C)c1cc2nn([C@H]3CC[C@H](CN4CCC(c5cc6cc(N7CCC(=O)NC7=O)ccn6n5)CC4)CC3)cc2cc1NC(=O)c1cnn2cccnc12 [TM-175]	13.2 nM	–
CN(C)c1cc2nn(C3CCN(C[C@H]4CC[C@H](n5cc6ccc(N7CCC(=O)NC7=O)cc6n5)CC4)CC3)cc2cc1NC(=O)c1cnn2cccnc12 [TM-52]	18.7 nM	–
C[C@@H]1CN(c2cc3nn([C@H]4CC[C@H](CN5CC6CN(c7nc8ccc(N9CCC(=O)NC9=O)cc8s7)CC6C5)CC4)cc3cc2NC(=O)c2cnn3cccnc23)CCO1 (some centres unmarked) [TM-62]	2.48 nM	–
C[C@@H]1CN(c2cc3nn([C@H]4CC[C@H](CN5CCC(n6cc7cc(N8CCC(=O)NC8=O)ccc7n6)CC5)CC4)cc3cc2NC(=O)c2cnn3cccnc23)CCO1 [TM-46]	7.46 nM	–
CN(C)c1cc2nn(C3CCN(C[C@H]4CC[C@H](n5cc6cc(N7CCC(=O)NC7=O)ccc6n5)CC4)CC3)cc2cc1NC(=O)c1cnn2cccnc12 [TM-53]	6.14 nM	–
O=C1CCN(c2ccc3nn(C4CCN(C[C@H]5CC[C@H](n6cc7cc(NC(=O)c8cnn9cccnc89)c(N8CCOCC8)cc7n6)CC5)CC4)cc3c2)C(=O)N1 [TM-44]	10.2 nM	–
CN(C)c1cc2nn([C@H]3CC[C@H](CN4CCC5(CC4)C[C@@H](n4cc6cc(F)c(C7CCC(=O)NC7=O)cc6n4)CO5)CC3)cc2cc1NC(=O)c1cnn2cccnc12 (some centres unmarked) [TM-140]	–	13.9 nM
O=C1CCC(c2ccc3cn(C4CCN(C[C@H]5CC[C@H](n6cc7cc(NC(=O)c8cnn9cccnc89)c(N8CCOCC8)cc7n6)CC5)CC4)nc3c2)C(=O)N1 (some centres unmarked) [TM-1]	5.86 nM	–
CN(C)c1cc2nn([C@H]3CC[C@H](CN4CC5(CC(n6cc7ccc(N8CCC(=O)NC8=O)cc7n6)C5)C4)CC3)cc2cc1NC(=O)c1cnn2cccnc12 [TM-215]	–	0.95 nM
C[C@@H]1CN(c2cc3nn([C@H]4CC[C@H](CN5CC6CN(c7nc8cc(N9CCC(=O)NC9=O)ccc8s7)CC6C5)CC4)cc3cc2NC(=O)c2cnn3cccnc23)CCO1 (some centres unmarked) [TM-63]	8.91 nM	–

SMILES	IC50 [1]	DC50 (IRAK4)
CN(C)c1cc2nn([C@H]3CC[C@H](CN4CC5(CCN(c6nc7ccc(N8CCC(=O)NC8=O)cn7n6)CC5)C4)CC3)cc2cc1NC(=O)c1cnn2cccnc12 [TM-148]	11.6 nM	–
CN(C)c1cc2nn([C@H]3CC[C@H](CN4CC[C@H](F)[C@@H](n5cc6ccc(N7CCC(=O)NC7=O)cc6n5)C4)CC3)cc2cc1NC(=O)c1cnn2cccnc12 [TM-213]	–	1.74 nM
CN(C)c1cc2nn([C@H]3CC[C@H](CN4C[C@H]5C[C@@H]4CN5c4nc5ccc(N6CCC(=O)NC6=O)cc5o4)CC3)cc2cc1NC(=O)c1cnn2cccnc12 [TM-83]	44.1 nM	–
CN(C)c1cc2nn([C@H]3CC[C@H](CN4C[C@@H]5C[C@H]4CN5c4nc5ccc(N6CCC(=O)NC6=O)cc5s4)CC3)cc2cc1NC(=O)c1cnn2cccnc12 [TM-74]	0.86 nM	–
CN(C)c1cc2nn([C@H]3CC[C@H](CN4CCN(c5nc6ccc(N7CCC(=O)NC7=O)cc6o5)CC4)CC3)cc2cc1NC(=O)c1cnn2cccnc12 [TM-75]	13.2 nM	–
CN(C)c1cc2nn(C3CCC(CN4CC5CN(c6nc7cc(N8CCC(=O)NC8=O)ccc7s6)CC5C4)CC3)cc2cc1NC(=O)c1cnn2cccnc12 (centres unmarked) [TM-61]	1.15 nM	–
C[C@@H]1CN(c2cc3nn([C@H]4CC[C@H](CN5CCC(n6cc7ccc(N8CCC(=O)NC8=O)cc7n6)CC5)CC4)cc3cc2NC(=O)c2cnn3cccnc23)CCO1 [TM-45]	8.81 nM	–
CN(C)c1cc2nn([C@H]3CC[C@H](CN4CCN(c5nc6ccc(N7CCC(=O)NC7=O)cc6s5)CC4)CC3)cc2cc1NC(=O)c1cnn2cccnc12 [TM-55]	1.61 nM	–
CN(C)c1cc2nn([C@H]3CC[C@H](CN4CCC(C5Nc6cc(N7CCC(=O)NC7=O)ccc6C5=O)CC4)CC3)cc2cc1NC(=O)c1cnn2cccnc12 (some centres unmarked) [TM-144]	38.4 nM	–
C[C@@H]1CN(C[C@H]2CC[C@H](n3cc4cc(NC(=O)c5cnn6cccnc56)c(N(C)C)cc4n3)CC2)CCN1c1nc2ccc(N3CCC(=O)NC3=O)cc2s1 [TM-65]	2.26 nM	–
CN(C)c1cc2nn(C3CCC(CN4CC5CN(c6nc7ccc(N8CCC(=O)NC8=O)cc7s6)CC5C4)CC3)cc2cc1NC(=O)c1cnn2cccnc12 (centres unmarked) [TM-60]	1.94 nM	–
C[C@@H]1CN(c2cc3nn([C@H]4CC[C@H](CN5CCC(n6cc7ccc(C8CCC(=O)NC8=O)cc7n6)CC5)CC4)cc3cc2NC(=O)c2cnn3cccnc23)CCO1 (some centres unmarked) [TM-48]	1.61 nM	–
CN(C)c1cc2nn([C@H]3CC[C@H](CN4CCN(c5nc6cc(N7CCC(=O)NC7=O)ccc6s5)CC4)CC3)cc2cc1NC(=O)c1cnn2cccnc12 [TM-54]	3.06 nM	–
C[C@H]1CN(C[C@H]2CC[C@H](n3cc4cc(NC(=O)c5cnn6cccnc56)c(N(C)C)cc4n3)CC2)CCN1c1nc2ccc(N3CCC(=O)NC3=O)cc2s1 [TM-66]	19.6 nM	–
CN(C)c1cc2nn([C@H]3CC[C@H](CN4CCN(c5nc6ccc(N7CCC(=O)NC7=O)cn6n5)CC4)CC3)cc2cc1NC(=O)c1cnn2cccnc12 [TM-110]	21.6 nM	–
C[C@@H]1CN(c2cc3nn(C4CCN(CC5CCC(n6cc7ccc(C8CCC(=O)NC8=O)cc7n6)CC5)CC4)cc3cc2NC(=O)c2cnn3cccnc23)CCO1 (some centres unmarked) [TM-50]	4.65 nM	–
CN(C)c1cc2nn([C@H]3CC[C@H](CN4CC5(CCN(c6nc7cc(F)c(N8CCC(=O)NC8=O)cc7o6)CC5)C4)CC3)cc2cc1NC(=O)c1cnn2cccnc12 [TM-90]	1.44 nM	–
C[C@@H]1CN(c2cc3nn(C4CCN(CC5CCC(n6cc7cc(C8CCC(=O)NC8=O)ccc7n6)CC5)CC4)cc3cc2NC(=O)c2cnn3cccnc23)CCO1 (some centres unmarked) [TM-49]	1.33 nM	–
CN(C)c1cc2nn([C@H]3CC[C@H](CN4CCN(c5nc6cc(F)c(N7CCC(=O)NC7=O)cc6o5)CC4)CC3)cc2cc1NC(=O)c1cnn2cccnc12 [TM-85]	8.41 nM	–
